Assays:
[1] = molecular target: T1, CpcA (phycocyanin alpha-subunit) (Thermostichus vulcanus, UniProt Q9AM02); assay: cryo-EM structure, […] Å; assay type: binding; conditions: covalent thioether to Cys84 of CpcA
T1 construct: native phycocyanin rod dissociated from intact phycobilisomes; two PC hexamers with linkers CpcC, CpcD, CpcG; with C-phycocyanin beta subunit

[2] = molecular target: T2, CpcB (phycocyanin beta-subunit) (Thermostichus vulcanus, UniProt Q71RW8); assay: cryo-EM structure, […] Å; assay type: binding; conditions: covalent thioether to Cys84 and Cys155 of CpcB
T2 construct: native phycocyanin rod dissociated from intact phycobilisomes; two PC hexamers with linkers CpcC, CpcD, CpcG; with C-phycocyanin alpha subunit

CC=C1C(=Cc2[nH]c(C=C3N=C(C=C4NC(=O)C(CC)=C4C)C(C)=C3CCC(=O)O)c(CCC(=O)O)c2C)NC(=O)[C@@H]1C [phycocyanobilin]
cryo-EM structure, 4.2 Å [1]: Arrangement of chromophores in the PC rod
cryo-EM structure, 4.2 Å [2]: Arrangement of chromophores in the PC rod

From publication PMC9205905, “Core and rod structures of a thermophilic cyanobacterial light-harvesting phycobilisome” (Nature Communications, 2022)
